Measured values as given in patent US4939241A, “Amino acid derivatives of antitumor activity” (Fujisawa Pharmaceutical Co., Ltd., priority 1987, dated 1990).
≈ marks a conversion by molar mass, not a printed value.

How the values were obtained:
[1] = test system: human lung adenocarcinoma A549 cell; test: Inhibition of human lung adenocarcinoma A549 cell growth in vitro (MTT assay); type: cell-based; settings: 168 h, A549 cells, seven days at 37° C.
Protocol: Inhibition of human lung adenocarcinoma A549 cell growth in vitro by some compounds of the amino acid derivatives (I)
The cytotoxicity test was performed in microtiter plates, with each well containing 3×10^3 A549 cells in 100 μl Dulbecco's minimum essential medium supplemented with 10% fetal calf serum, penicillin (50 units/ml) and streptomycin (50 μg/ml). The cells were incubated at 37° C. for seven days and the colorimetric MTT (tetrazolium) assay was performed according to the method described by Mosmann (J. Immunol. Methods, 65, 55-63, 1983). MTT [3-(4,5-dimethylthiazol-2-yl)-2,5-diphenyl tetrazolium bromide, made by Sigma] was dissolved in PBS at 5 mg/ml and filtered to sterilize and remove a small amount of insoluble residue. After the culture of A549 cells was terminated, this MTT solution (10 μl per 100μl medium) was added to plates were further incubated at 37° C. for 4 hours. Acid-isopropanol (100 μl of 0.04N HCl in isopropanol) was added to all wells and mixed thoroughly to dissolve the dark blue crystals. After all crystals were dissolved, the plates were read on a 2-wavelength microplate photometer (Model MTP-22; Corona Electric Co., Ltd., Katsuta, Japan) at 550 nm, a reference wavelength of 660 nm. The object compound of this invention was dissolved and diluted in Dulbecco's minimum essential medium and added to the culture to give final concentration of 30μg/ml or less.

[2] = test system: human mammary adenocarcinoma MCF-7 cell; test: Inhibition of human mammary adenocarcinoma MCF-7 cell growth in vitro (MTT assay); type: cell-based; settings: MCF7, 168 h, MCF-7 cells, seven days at 37° C.
Protocol: Inhibition of human mammary adenocarcinoma MCF-7 cell growth in vitro by some compounds of the amino acid derivatives (I)
The cytotoxicity test was performed in microtiter plates, with each well containing 3×10^3 MCF-7 cells in 100 μl Eagle's minimum essential medium supplemented with 10% fetal calf serum, sodium pyruvate, nonessential amino acids, penicillin (50 units/ml) and streptomycin (50 μg/ml). The cells were incubated at 37° C. for seven days in humidified atomosphere of 5% carbon dioxide and 95% of air and the colorimetric MTT assay was performed as described in Test 1.
The test compound was dissolved and diluted in Eagle's minimum essential medium and added to the culture to give final concentration of 30 μg/ml or less.

[3] = Acute toxicity in BDF1 mice by intravenous injection; settings: mouse, in vivo
Protocol: Acute toxicity of FR-900840 substance in BDF1 mice by intravenous injection is 180 mg/kg.

[4] = Solubility of FR-900840 substance; type: physicochemical

SMILES | IC50 [1] [ng/mL] | IC50 [2] [ng/mL] | also measured
[N-]=[N+]=C(CO)C(=O)OC[C@H](N)C(=O)O [Example 6, O-(2-Diazo-3-hydroxy-1-oxopropyl)-L-serine] | 0.0018 (≈ 0.00886 nM) | 0.0017 (≈ 0.00837 nM) | 
C[C@@H](O)C(=[N+]=[N-])C(=O)OC[C@H](N)C(=O)O [Example 1, O-[2-diazo-3(R)-hydroxy-1-oxobutyl]-L-serine] | 0.012 (≈ 0.0553 nM) | 0.0018 (≈ 0.00829 nM) | LD50 [3]: 180 mg/kg; Solubility ([4]; acetone): insoluble; Solubility ([4]; benzene): insoluble; Solubility ([4]; chloroform): insoluble; Solubility ([4]; diethyl ether): insoluble; Solubility ([4]; ethanol): sparingly soluble; Solubility ([4]; ethyl acetate): insoluble; Solubility ([4]; methanol): sparingly soluble; Solubility ([4]; water): soluble

Continued, in another order:

IC50 [1] [ng/mL] | IC50 [2] [ng/mL] | SMILES | also measured
0.0105 (≈ 0.0335 nM) | 0.0068 (≈ 0.0217 nM) | C[C@@H](O)C(=[N+]=[N-])C(=O)OC[C@H](NC(=O)C(F)(F)F)C(=O)O [Example 2, O-[2-Diazo-3(R)-hydroxy-1-oxobutyl]-N-trifluoroacetyl-L-serine] | 
0.14 (≈ 0.501 nM) | 0.076 (≈ 0.272 nM) | [N-]=[N+]=C(C(=O)OC[C@H](N)C(=O)O)C(O)c1ccccc1 (stereo partly shown) [Example 5] | 
0.018 (≈ 0.0829 nM) | 0.00082 (≈ 0.00378 nM) | C[C@H](O)C(=[N+]=[N-])C(=O)OC[C@H](N)C(=O)O [Example 4, O-[2-Diazo-3(S)-hydroxy-1-oxobutyl]-L-serine] | 
